Common to all, as to assay: DTP human tumour cell line panel, 48 h
Experiment [1] has as its system NCI-H226 lung.
Experiment [2] has as its system SK-OV-3 ovarian.
In experiment [3] the test system is SF-268 CNS.
Experiment [4] has as its system SW-620 colon.
Experiment [5] has as its system HOP-92 NSCLC.
Experiment [6] relates to KM12 colon.
The subject of experiment [7] is HCC-2998 colon.
Experiment [8] concerns EKVX NSCLC.
The test system of experiment [9] is MOLT-4 leukemia.
Experiment [10] concerns RPMI-8226 leukemia.

Data on eleven compounds can be found in PubChem BioAssay (NCI).

By GI50 is commonly meant the concentration that inhibits growth by half. Usually TGI stands for the concentration at which net growth stops. The low end stands for more potent growth arrest, the high end for less potent growth arrest.

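Test compounds were applied to cells in 96-well plates for 48 hours at 5 doses. GI50 marks 50% less growth. TGI marks complete inhibition of growth.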 Some results are limits rather than exact numbers.

`FC(F)(F)Oc1cccc(-c2cc(NCCCCCCNc3cc(-c4cccc(OC(F)(F)F)c4)nc4ccc(N5CCCC5)cc34)c3cc(N4CCCC4)ccc3n2)c1`: the GI50 in experiment [1] was 1.86 µM; in experiment [2], 1.78 µM; in experiment [3], 1.94 µM; in experiment [4], 1.81 µM; in [5], 1.54 µM; in experiment [6] it was 1.74 µM. Further, in experiment [7], the GI50 is 1.74 µM. In addition, the TGI in experiment [1] was 3.69 µM; in experiment [2] it was 3.36 µM; in [3], 3.9 µM; in experiment [4] it was 3.35 µM; in [5] it was 3.18 µM; in [6], 3.27 µM. This compound also yielded a TGI in experiment [7] of 3.27 µM.
On to `O=C(NCCNCCO)c1ccc2c(c1)oc1cc3ccccc3c(=O)n12`, for which the GI50 in experiment [8] was 37.8 µM; in experiment [9] it was 44.3 µM; in experiment [2] it was above 50 µM; in [3], 19.6 µM; in experiment [10], 33.8 µM; in [4], 18.1 µM. In addition, the GI50 is 37.6 µM in experiment [5] and 9.32 µM in experiment [6]. Moreover, the TGI in [8], in experiment [9], in [2], in experiment [3], in [10] and in experiment [4] was above 50 µM in each case. Besides, the TGI in experiment [5] and in [6] was above 50 µM in each case.
For the compound `Cc1c(C(=N)C(C#N)C#N)c(=N)oc2c1ccc1ccccc12`, the GI50 in experiment [8] is 4.45 µM; in experiment [9], 21.7 µM; in experiment [2] it was 21.3 µM; in experiment [3], 46.5 µM; in experiment [10], 20.8 µM; in experiment [4], 18.4 µM. Moreover, the GI50 in experiment [6] was 26.2 µM; in experiment [7], 18 µM. Moreover, the TGI in [8] was above 100 µM; in experiment [9], above 100 µM; in [2], 63.3 µM; in [3], above 100 µM; in [10] it was 78.3 µM; in [4] it was 56.1 µM. Moreover, the total growth inhibition concentration (TGI) was above 100 µM in experiment [6] and 39.3 µM in experiment [7].
Regarding `COc1ccc(OC)c(/C=C/c2nc(=S)n(-c3ccc(Cl)cc3)[nH]2)c1`, the GI50 in [8] was 30 µM; in [9] it was 7.74 µM; in [2] it was 9.4 µM; in [3], 17.5 µM; in experiment [10], 5.22 µM; in experiment [4] it was 5.09 µM. Also, the GI50 in experiment [5] was 3.56 µM; in [6] it was 4.03 µM; in experiment [7], 13.3 µM. The TGI in [8], in [9], in experiment [2], in [3], in experiment [10] and in experiment [4] was above 100 µM each time. For the same compound, the TGI in [5], in experiment [6] and in experiment [7] was above 100 µM each time.
As for `COC(=O)C1C(C(=O)OC)C2C(=O)C3C(C(=O)OC)C(C(=O)OC)C3C(=O)C12` (centres undefined), the TGI in [8], in experiment [1], in experiment [9], in experiment [2], in experiment [3] and in experiment [4] was above 100 µM in each case. In addition, the TGI in [5], in experiment [6] and in experiment [7] was above 100 µM in each case.
Regarding `O=[N+]([O-])c1ccccc1C1SCc2nc3ccccc3n21` (centres undefined), the TGI in experiment [8], in experiment [9], in experiment [2], in experiment [3], in experiment [4] and in experiment [5] was above 100 µM each time. The compound further registered a TGI in experiment [6] above 100 µM.
As to `COc1nc2c(c(O)c(C)c(=O)n2OC2OCC(OC(C)=O)C(OC(C)=O)C2OC(C)=O)c(=O)n1C` (centres undefined), the TGI in [8], in experiment [1], in [9], in experiment [3], in [4] and in experiment [6] was above 100 µM throughout. In experiment [7], this compound had a TGI above 100 µM.
Regarding `COC(=O)OC1C(O[C@H]2C[C@H]3[C@@H]4CC=C5C[C@@H](O)CC[C@]5(C)[C@H]4CC[C@]3(C)[C@H]2[C@H](C)C(=O)CCC(C)C)OCC(O)C1OC1OCC(O)C(O)C1OC(=O)c1ccc(OC)cc1` (some centres undefined), the GI50 in experiment [8] is 0.0196 µM; in [9] it was 0.00695 µM; in experiment [2], 0.0073 µM; in [3] it was 0.0137 µM; in experiment [10], below 0.00275 µM; in experiment [4] it was 0.00877 µM. Also, the figures for the GI50 in experiment [5], in experiment [6] and in experiment [7] were 0.0492 µM, 0.039 µM and 1.44 µM, respectively. For the same compound, the TGI in experiment [8] came to 2.55 µM; in experiment [9], 0.0178 µM; in experiment [2], 0.611 µM; in experiment [3] it was 2.24 µM; in experiment [10], 0.00491 µM; in experiment [4], 0.277 µM. The values for the TGI in [5], in [6] and in experiment [7] were 1.87 µM, 9.86 µM and above 27.5 µM, respectively.
Consider `O=c1cc(O)cc2n1CCC2`, for which the TGI in experiment [8], in experiment [1], in [9], in experiment [2], in experiment [3] and in experiment [10] was above 100 µM throughout. The TGI in experiment [4], in [6] and in experiment [7] was above 100 µM in each case.
For `CC1=N/C(=C\c2ccc(/C=C3/N=C(C)OC3=O)cc2)C(=O)O1`, the TGI in experiment [2], in [3], in [10], in [4], in experiment [5] and in experiment [6] was above 100 µM throughout. This compound had a TGI in experiment [7] above 100 µM.
For `COC(=O)CCC(NC(=S)N/N=C/c1cccs1)C(=O)OC` (centres undefined), the TGI in [8], in experiment [1], in [2], in experiment [3], in experiment [4] and in experiment [5] was above 100 µM in each case. Also, the total growth inhibition concentration (TGI) in experiment [6] and in experiment [7] was above 100 µM throughout.
